Here are results for nine compounds from patent publication US5326883A, “Oxime ether derivatives having lipoxygenase inhibitory activity” (Abbott Laboratories, priority 1992, dated 1994).

In one assay the test system is biosynthesis of leukotrienes. As to the kind of experiment: Inhibition of leukotriene biosynthesis in vivo, rat peritoneal anaphylaxis model, oral. The conditions noted are these: Oral Dose at 30 μmol/kg, gavage one hour prior to antigen challenge; rat peritoneal fluid 15 min after challenge. Here is the method: Inhibition of the biosynthesis of leuktrienes in vivo after oral administration of compound was determined using a rat peritoneal anaphylaxis model in a similar manner as that described by Young and coworkers (Young, P. R.; Dyer, R. D.; Carter, G. W. Fed. Proc., Fed. Am. Soc. Exp. Biol. 1985, 44, 1185). In this model rats were injected intraperitoneally (ip) with rabbit antibody to bovine serum albumin (BSA) and three hours later injected ip with BSA to induce an antgen-antibody response. Rats were sacrificed 15 minutes after this challenge and the peritoneal fluids were collected and analyzed for leukotriene levels. Test compounds were administered by gavage one hour prior to the antigen challenge. Percent inhibition values were determined by comparing the treatment group to the mean of the control group.
As to `CC(CO/N=C\c1ccc(Oc2ccc(F)cc2)o1)N(O)C(N)=O` (stereo not shown) [Example 6, 5-(4-fluorophenoxy)fur-2-ylmethyl-Z-oximyl-O-2-(1-methyl)ethyl-N-hydroxyurea], the “% Inhibition of Leukotrienes” value came to 70%.

`CC(CO/N=C/c1ccc(Oc2ccc(F)cc2)o1)N(O)C(N)=O` (stereo not shown) [Example 7, 5-(4-fluorophenoxy)fur-2-ylmethyl-E-oximyl-O-2-(1-methyl)ethyl-N-hydroxyurea]: the “% Inhibition of Leukotrienes” value worked out at 56%. Regarding `CC(CN(O)C(N)=O)O/N=C\c1ccc(Oc2ccc(F)cc2)o1` (stereo not shown) [Example 9, 5-(4-fluorophenoxy)fur-2-ylmethyl-Z-oximyl-O-2-(2-methyl)ethyl-N-hydroxyurea], the “% Inhibition of Leukotrienes” value is 64%.

The target in another assay is T1, 5-Lipoxygenase (Homo sapiens, UniProt P09917).
T1 construct: Human heparinized whole blood was preincubated with test compounds or vehicle for 15 min; endogenous in cells; host or cells: human heparinized whole blood (blood leukocytes)
T1 sequence (P09917 1-674): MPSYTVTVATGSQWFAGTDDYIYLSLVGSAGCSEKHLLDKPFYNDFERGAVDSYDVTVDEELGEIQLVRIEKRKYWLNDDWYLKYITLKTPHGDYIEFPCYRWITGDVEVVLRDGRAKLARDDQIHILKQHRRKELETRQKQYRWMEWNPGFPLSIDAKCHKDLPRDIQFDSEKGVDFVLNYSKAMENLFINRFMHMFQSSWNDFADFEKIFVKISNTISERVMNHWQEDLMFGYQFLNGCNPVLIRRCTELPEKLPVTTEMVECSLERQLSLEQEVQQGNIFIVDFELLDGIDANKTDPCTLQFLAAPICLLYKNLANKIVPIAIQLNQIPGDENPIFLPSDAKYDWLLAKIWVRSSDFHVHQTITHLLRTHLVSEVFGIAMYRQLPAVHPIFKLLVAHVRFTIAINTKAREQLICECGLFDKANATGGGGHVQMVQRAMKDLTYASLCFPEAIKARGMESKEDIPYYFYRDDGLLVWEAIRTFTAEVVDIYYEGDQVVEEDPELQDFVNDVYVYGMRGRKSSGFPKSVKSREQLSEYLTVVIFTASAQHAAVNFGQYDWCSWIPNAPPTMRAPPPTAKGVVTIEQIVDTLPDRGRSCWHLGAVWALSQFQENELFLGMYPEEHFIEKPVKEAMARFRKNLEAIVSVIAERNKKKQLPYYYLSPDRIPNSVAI
As to the kind of experiment: Calcium ionophore-induced LTB4 biosynthesis in human whole blood (5-lipoxygenase inhibition). The conditions noted are these: human heparinized whole blood; 15 min preincubation at 37° C; A23187 8.3 μM, 30 min; LTB4 by radioimmunoassay. It is filed as cell-based. Here is the method: Inhibition of leukotriene biosynthesis was evaluated in an assay, involving calcium ionophore-induced LTB4 biosynthesis expressed human whole blood. […] The methanol extract was analyzed for LTB4 using a commercially available radioimmunoassay. |In Vitro Inhibitory Potencies of Compounds of this Invention […] |in Human Whole Blood
As for `CC(=NOCCN(O)C(N)=O)c1cc2ccccc2s1` [Example 1, 1-(benzo[b]thien-2-yl)ethyloximyl-O-2-ethyl-N-hydroxyurea], the IC50 (as a rule, the concentration at which inhibition is half-maximal) was 0.1 µM. For `CCCCCC=NOCCN(O)C(N)=O` [Example 2, hexyloximyl-O-2-ethyl-N-hydroxyurea], the IC50 was determined as 0.1 µM. On to `NC(=O)N(O)CCON=Cc1cccn1Cc1ccc(Cl)cc1` [Example 3, 1-(4-chlorobenzyl)-pyrro-2-ylmethyloximyl-O-2-ethyl-N-hydroxyurea], for which the IC50 came to 0.16 µM. The same measure, in the same setting: under `NC(=O)N(O)CCON=Cc1cccc(Oc2ccc(F)cc2)c1` [Example 4, 3-(4-fluorophenoxy)phenylmethyloximyl-O-2-ethyl-N-hydroxyurea] stands 0.1 µM; under `CC(CN(O)C(N)=O)O/N=C/c1ccc(Oc2ccc(F)cc2)o1` (stereo not shown) [Example 8, 5-(4-fluorophenoxy)fur-2-ylmethyl-E-oximyl-O-2-(2-methyl)ethyl-N-hydroxyurea], 0.14 µM.

Turning to `CC(CN(O)C(N)=O)O/N=C\c1ccc(Oc2ccc(F)cc2)o1` (stereo not shown) [Example 9, 5-(4-fluorophenoxy)fur-2-ylmethyl-Z-oximyl-O-2-(2-methyl)ethyl-N-hydroxyurea], the IC50 amounted to 0.1 µM. As for `NC(=O)N(O)CCON=Cc1ccc(Sc2ccccc2)o1` [Example 10, 5-(phenylthio)fur-2-ylmethyloximyl-O-2-ethyl-N-hydroxyurea], the IC50 turned out to be 0.1 µM.
